Target: T1, catalytic domain of human Bub1 (amino acids 704-1085) (Homo sapiens, UniProt O43683)
T1 construct: catalytic domain of human Bub1 (amino acids 704-1085); His6 (N); made in house; host or cells: Hi5 insect cells
Assay: Bub1 kinase assay (TR-FRET)
Assay type: biochemical
Details: TR-FRET; ATP 10 μM, peptide substrate 1 μM; 60 min at 22° C.; average or median if tested more than once; read-out: Inhibition of Bub1 kinase IC50
Excerpt: Bub1-inhibitory activities of compounds described in the present invention were quantified using a time-resolved fluorescence energy transfer (TR-FRET) kinase assay which measures phosphorylation of the synthetic peptide Biotin-Ahx-VLLPKKSFAEPG (C-terminus in amide form), purchased from e.g. Biosyntan (Berlin, Germany) by the (recombinant) catalytic domain of human Bub1 (amino acids 704-1085), expressed in Hi5 insect cells with an N-terminal His6-tag and purified by affinity—(Ni-NTA) and size exclusion chromatography.
In a typical assay 11 different concentrations of each compound (0.1 nM, 0.33 nM, 1.1 nM, 3.8 nM, 13 nM, 44 nM, 0.15 μM, 0.51 μM, 1.7 μM, 5.9 μM and 20 μM) were tested in duplicate within the same microtiter plate. To this end, 100-fold concentrated compound solutions (in DMSO) were previously prepared by serial dilution (1:3.4) of 2 mM stocks in a clear low volume 384-well source microtiter plate (Greiner Bio-One, Frickenhausen, Germany), from which 50 nl of compounds were transferred into a black low volume test microtiter plate from the same supplier. Subsequently, 2 μL of Bub1 (the final concentration of Bub1 was adjusted depending on the activity of the enzyme lot in order to be within the linear dynamic range of the assay: typically ˜200 ng/mL were used) in aqueous assay buffer [50 mM Tris/HCl pH 7.5, 10 mM magnesium chloride (MgCl2), 200 mM potassium chloride (KCl), 1.0 mM dithiothreitol (DTT), 0.1 mM sodium ortho-vanadate, 1% (v/v) glycerol, 0.01% (w/v) bovine serum albumine (BSA), 0.005% (v/v) Trition X-100 (Sigma), 1× Complete EDTA-free protease inhibitor mixture (Roche)] were added to the compounds in the test plate and the mixture was incubated for 15 min at 22° C. to allow pre-equilibration of the putative enzyme-inhibitor complexes before the start of the kinase reaction, which was initiated by the addition of 3 μL 1.67-fold concentrated solution (in assay buffer) of adenosine-tri-phosphate (ATP, 10 μM final concentration) and peptide substrate (1 μM final concentration). The resulting mixture (5 μL final volume) was incubated at 22° C. during 60 min., and the reaction was stopped by the addition of 5 μL of an aqueous EDTA-solution (50 mM EDTA, in 100 mM HEPES pH 7.5 and 0.2% (w/v) bovine serum albumin) which also contained the TR-FRET detection reagents (0.2 μM streptavidin-XL665 [Cisbio Bioassays, Codolet, France] and 1 nM anti-phospho-Serine antibody [Merck Millipore, cat. #35-002] and 0.4 nM LANCE EU-W1024 labeled anti-mouse IgG antibody [Perkin-Elmer, product no. AD0077, alternatively a Terbium-cryptate-labeled anti-mouse IgG antibody from Cisbio Bioassays can be used]). The stopped reaction mixture was further incubated 1 h at 22° C. in order to allow the formation of complexes between peptides and detection reagents. Subsequently, the amount of product was evaluated by measurement of the resonance energy transfer from the Eu-chelate-antibody complex recognizing the Phosphoserine residue to the streptavidin-XL665 bound to the biotin moiety of the peptide. To this end, the fluorescence emissions at 620 nm and 665 nm after excitation at 330-350 nm were measured in a TR-FRET plate reader, e.g. a Rubystar or Pherastar (both from BMG Labtechnologies, Offenburg, Germany) or a Viewlux (Perkin-Elmer) and the ratio of the emissions (665 nm/[…]) was taken as indicator for the amount of phosphorylated substrate. The data were normalised using two sets of control wells for high—(=enzyme reaction without inhibitor=0%=Minimum inhibition) and low—(=all assay components without enzyme=100%=Maximum inhibition) Bub1 activity. IC50 values were calculated by fitting the normalized inhibition data to a 4-parameter logistic equation (Minimum, Maximum, IC50, Hill; Y=Max+(Min−Max)/(1+(X/IC50)Hill)).

T1 sequence (O43683 704-1085): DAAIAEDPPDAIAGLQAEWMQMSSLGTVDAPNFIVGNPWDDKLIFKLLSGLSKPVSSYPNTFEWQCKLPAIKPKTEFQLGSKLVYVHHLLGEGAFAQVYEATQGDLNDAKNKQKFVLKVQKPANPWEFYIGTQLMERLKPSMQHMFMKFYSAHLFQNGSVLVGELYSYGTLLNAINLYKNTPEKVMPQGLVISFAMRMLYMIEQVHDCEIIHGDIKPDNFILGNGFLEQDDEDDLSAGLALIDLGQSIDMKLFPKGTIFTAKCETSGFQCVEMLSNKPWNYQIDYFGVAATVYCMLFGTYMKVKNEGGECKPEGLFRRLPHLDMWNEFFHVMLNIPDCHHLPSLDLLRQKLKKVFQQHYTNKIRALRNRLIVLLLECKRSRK

IC50 | SMILES
79 nM | NC(CN1CC(=NO)c2c([nH]c(-c3ccncc3)c2Nc2ccccc2)C1)=NO (mixture of isomers) [Example 218, (1E/Z)—N′-Hydroxy-2-[(4E/Z)-4-(hydroxyimino)-3-(phenylamino)-2-(pyridin-4-yl)-1,4,5,7-tetrahydro-6H-pyrrolo[2,3-c]pyridin-6-yl]ethanimidamide]
21 nM | C[S+]([O-])CCNC(=O)N1CC(=O)c2c([nH]c(-c3ccncc3)c2Nc2ccccc2)C1 (racemic) [Example 88, N-{2-[(RS)-Methylsulfinyl]ethyl}4-oxo-3-(phenylamino)-2-(pyridin-4-yl)-1,4,5,7-tetrahydro-6H-pyrrolo[2,3-c]pyridine-6-carboxamide]
10 nM | CC(C)(C)OC(=O)N1CC(=O)c2c([nH]c(-c3ccnc(NC(=O)C4CC4(F)F)c3)c2Nc2ccccc2)C1 (racemic) [Example 121, tert-Butyl 2-[2-({[(1RS)-2,2-difluorocyclopropyl]carbonyl}amino)pyridin-4-yl]-4-oxo-3-(phenylamino)-1,4,5,7-tetrahydro-6H-pyrrolo[2,3-c]pyridine-6-carboxylate]
64 nM | O=C1CNCc2[nH]c(-c3ccnc(NC(=O)C4CC4(F)F)c3)c(Nc3ccccc3)c21 (racemic) [Example 137, (1RS)—N-[4-(3-Anilino-4-oxo-4,5,6,7-tetrahydro-1H-pyrrolo[2,3-c]pyridin-2-yl)pyridin-2-yl]-2,2-difluorocyclopropanecarboxamide]
10 nM | COC(=O)N1CC(=O)c2c([nH]c(-c3ccnc(NC(=O)C4CC4(F)F)c3)c2Nc2ccccc2)C1 (racemic) [Example 146, Methyl 3-anilino-2-[2-({[(1RS)-2,2-difluorocyclopropyl]carbonyl}amino)pyridin-4-yl]-4-oxo-1,4,5,7-tetrahydro-6H-pyrrolo[2,3-c]pyridine-6-carboxylate]
4 nM | CS(=O)(=O)N1CC(=O)c2c([nH]c(-c3ccnc(NC(=O)C4CC4(F)F)c3)c2Nc2ccccc2)C1 (racemic) [Example 149, (1RS)—N-{4-[3-Anilino-6-(methylsulfonyl)-4-oxo-4,5,6,7-tetrahydro-1H-pyrrolo[2,3-c]pyridin-2-yl]pyridin-2-yl}-2,2-difluorocyclopropanecarboxamide]
8 nM | CC(C)OC(=O)N1CC(=O)c2c([nH]c(-c3ccnc(NC(=O)C4CC4(F)F)c3)c2Nc2ccccc2)C1 (racemic) [Example 158, Isopropyl 3-anilino-2-[2-({[(1RS)-2,2-difluorocyclopropyl]carbonyl}amino)pyridin-4-yl]-4-oxo-1,4,5,7-tetrahydro-6H-pyrrolo[2,3-c]pyridine-6-carboxylate]
6 nM | O=C1CN(S(=O)(=O)c2cnc[nH]2)Cc2[nH]c(-c3ccnc(NC(=O)C4CC4(F)F)c3)c(Nc3ccccc3)c21 (racemic) [Example 164, (1RS)—N-{4-[3-Anilino-6-(1H-imidazol-5-ylsulfonyl)-4-oxo-4,5,6,7-tetrahydro-1H-pyrrolo[2,3-c]pyridin-2-yl]pyridin-2-yl}-2,2-difluorocyclopropanecarboxamide]
5 nM | CC(=O)Nc1cc(-c2[nH]c3c(c2Nc2ccccc2)C(=O)CN(C(=O)C(C)C(F)(F)F)C3)ccn1 (racemic) [Example 178, N-(4-{3-Anilino-4-oxo-6-[(2RS)-3,3,3-trifluoro-2-methylpropanoyl]-4,5,6,7-tetrahydro-1H-pyrrolo[2,3-c]pyridin-2-yl}pyridin-2-yl)acetamide]
9 nM | CC(C)(C)OC(=O)N1CC(=O)c2c([nH]c(-c3ccnc(NC(=O)[C@@H]4C[C@@H]4F)c3)c2Nc2ccccc2)C1 (relative stereo) [Example 120, tert-Butyl 2-[2-({[rel-(1S,2S)-2-fluorocyclopropyl]carbonyl}amino)pyridin-4-yl]-4-oxo-3-(phenylamino)-1,4,5,7-tetrahydro-6H-pyrrolo[2,3-c]pyridine-6-carboxylate]
7 nM | CC(C)(C)OC(=O)N1CC(=O)c2c([nH]c(-c3ccnc(NC(=O)[C@@H]4C[C@H]4F)c3)c2Nc2ccccc2)C1 (relative stereo) [Example 129, tert-Butyl 3-anilino-2-[2-({[(rel-1S,2R)-2-fluorocyclopropyl]carbonyl}amino)pyridin-4-yl]-4-oxo-1,4,5,7-tetrahydro-6H-pyrrolo[2,3-c]pyridine-6-carboxylate]
81 nM | O=C1CNCc2[nH]c(-c3ccnc(NC(=O)[C@@H]4C[C@@H]4F)c3)c(Nc3ccccc3)c21 (relative stereo) [Example 136, rel-(1S,2S)—N-[4-(3-Anilino-4-oxo-4,5,6,7-tetrahydro-1H-pyrrolo[2,3-c]pyridin-2-yl)pyridin-2-yl]-2-fluorocyclopropanecarboxamide]
7 nM | COC(=O)N1CC(=O)c2c([nH]c(-c3ccnc(NC(=O)[C@@H]4C[C@@H]4F)c3)c2Nc2ccccc2)C1 (relative stereo) [Example 139, Methyl 3-anilino-2-[2-({[rel-(1S,2S)-2-fluorocyclopropyl]carbonyl}amino)pyridin-4-yl]-4-oxo-1,4,5,7-tetrahydro-6H-pyrrolo[2,3-c]pyridine-6-carboxylate]
76 nM | O=C1CNCc2[nH]c(-c3ccnc(NC(=O)[C@@H]4C[C@H]4F)c3)c(Nc3ccccc3)c21 (relative stereo) [Example 142, rel-(1S,2R)—N-[4-(3-Anilino-4-oxo-4,5,6,7-tetrahydro-1H-pyrrolo[2,3-c]pyridin-2-yl)pyridin-2-yl]-2-fluorocyclopropanecarboxamide]
4 nM | CS(=O)(=O)N1CC(=O)c2c([nH]c(-c3ccnc(NC(=O)[C@H]4C[C@H]4F)c3)c2Nc2ccccc2)C1 (relative stereo) [Example 148, rel-(1R,2R)—N-{4-[3-Anilino-6-(methylsulfonyl)-4-oxo-4,5,6,7-tetrahydro-1H-pyrrolo[2,3-c]pyridin-2-yl]pyridin-2-yl}-2-fluorocyclopropanecarboxamide]
7 nM | CC(C)OC(=O)N1CC(=O)c2c([nH]c(-c3ccnc(NC(=O)[C@H]4C[C@H]4F)c3)c2Nc2ccccc2)C1 (relative stereo) [Example 157, Isopropyl 3-anilino-2-[2-({[rel-(1R,2R)-2-fluorocyclopropyl]carbonyl}amino)pyridin-4-yl]-4-oxo-1,4,5,7-tetrahydro-6H-pyrrolo[2,3-c]pyridine-6-carboxylate]
6 nM | O=C1CN(S(=O)(=O)c2cnc[nH]2)Cc2[nH]c(-c3ccnc(NC(=O)[C@H]4C[C@H]4F)c3)c(Nc3ccccc3)c21 (relative stereo) [Example 163, rel-(1R,2R)—N-{4-[3-Anilino-6-(1H-imidazol-5-ylsulfonyl)-4-oxo-4,5,6,7-tetrahydro-1H-pyrrolo[2,3-c]pyridin-2-yl]pyridin-2-yl}-2-fluorocyclopropanecarboxamide]
67 nM | O=C1CN(Cc2ccccc2)Cc2[nH]c(-c3ccncc3)c(Nc3ccccc3)c21 [Example 1, 6-Benzyl-3-(phenylamino)-2-(pyridin-4-yl)-1,5,6,7-tetrahydro-4H-pyrrolo[2,3-c]pyridin-4-one]
236 nM | O=C1CNCc2[nH]c(-c3ccncc3Cl)c(Nc3ccccc3)c21 [Example 2, 2-(3-Chloropyridin-4-yl)-3-(phenylamino)-1,5,6,7-tetrahydro-4H-pyrrolo[2,3-c]pyridin-4-one]

From patent US20200216439A1, “HETERO-1,5,6,7-TETRAHYDRO-4H-INDOL-4-ONES” (BAYER PHARMA AKTIENGESELLSCHAFT, priority 2015, published 2020)
